Substitutions are numbered along the chain they refer to.
Key:
RIG-I C268F = molecular target: T1, RIG-I C268F (Homo sapiens, UniProt O95786, C268F); assay: MANT-nucleotide binding, tryptophan fluorescence FRET
T1 construct: made in house; host or cells: High Five (Trichoplusia ni) insect cells, baculovirus, pFBDM vector
T1 sequence (O95786 1-925 C268F): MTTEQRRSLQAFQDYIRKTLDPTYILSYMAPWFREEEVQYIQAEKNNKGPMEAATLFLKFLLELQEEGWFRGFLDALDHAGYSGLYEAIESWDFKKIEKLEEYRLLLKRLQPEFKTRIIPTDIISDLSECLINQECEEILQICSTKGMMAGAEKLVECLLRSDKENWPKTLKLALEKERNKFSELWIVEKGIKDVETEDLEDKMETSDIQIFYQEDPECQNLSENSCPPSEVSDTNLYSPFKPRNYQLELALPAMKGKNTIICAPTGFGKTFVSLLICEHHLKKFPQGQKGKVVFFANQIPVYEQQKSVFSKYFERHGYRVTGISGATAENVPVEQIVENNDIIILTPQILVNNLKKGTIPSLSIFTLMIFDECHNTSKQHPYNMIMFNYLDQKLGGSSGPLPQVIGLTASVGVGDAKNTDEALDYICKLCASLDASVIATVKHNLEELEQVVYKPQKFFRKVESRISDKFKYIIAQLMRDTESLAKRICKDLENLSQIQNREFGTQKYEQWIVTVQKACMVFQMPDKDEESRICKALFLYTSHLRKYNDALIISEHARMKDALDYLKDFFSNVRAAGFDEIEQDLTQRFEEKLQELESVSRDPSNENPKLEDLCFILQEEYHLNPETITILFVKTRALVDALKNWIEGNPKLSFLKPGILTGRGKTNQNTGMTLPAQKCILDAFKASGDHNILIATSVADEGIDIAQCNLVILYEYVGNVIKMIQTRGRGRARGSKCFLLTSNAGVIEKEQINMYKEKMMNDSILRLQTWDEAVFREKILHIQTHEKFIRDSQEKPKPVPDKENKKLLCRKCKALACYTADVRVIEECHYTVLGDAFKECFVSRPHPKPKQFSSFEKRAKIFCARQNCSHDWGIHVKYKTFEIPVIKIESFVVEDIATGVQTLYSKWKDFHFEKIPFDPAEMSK
Protocol: (§1) Binding of MANT-ATP and MANT-ATPγS to different full-length RIG-I mutants (1–925, N-terminal His-tag) was determined via Förster resonance energy transfer from RIG-I to MANT-ATP (Jena Bioscience, Jena, Germany). All samples were prepared in 96-well black chimney microplates. 2.2 µM protein and equimolar concentrations of a 14mer dsRNA (5'-CGACGCUAGCGUCG-3', see 'Protein crystalization') were pre-incubated with different MANT-ATP concentrations (0.2 µM – 200 µM) for 15 min at room temperature in assay buffer (25 mM HEPES, 50 mM NaCl, 5 mM MgCl2, 1 mM DTT, pH 7). Fluorescence of MANT-ATP was measured in a TECAN M1000 microplate reader at λex/em = 290/448 nm, gain = 170 using an average of five reads per well. Assays were performed four times in independent experiments using the same protein purification batch. For determination of affinities fluorescence values were fitted to Equation (1) using R, where y is the fluorescence, [P] is the protein concentration, Bmax is the maximal fluorescence and KD is the dissociation constant. Fitting was performed globally on all available datasets. Representative values in figures are mean values ± SD.

RIG-I K270I = molecular target: T2, RIG-I K270I (Homo sapiens, UniProt O95786, K270I); assay: as above
T2 construct: different full-length RIG-I mutants (1–925, N-terminal His-tag); made in house; host or cells: High Five (Trichoplusia ni) insect cells, baculovirus, pFBDM vector
T2 sequence (O95786 1-925 K270I): T1 sequence (O95786 1-925 C268F) with F268C, K270I
Protocol: as §1

[1] = presence of equimolar 14mer dsRNA, n.f. = no fit possible as no saturation was reached

Kd (RIG-I C268F; absence of RNA, n = 4, read-out: Affinity (KD) to RIG-I C268F): 166 ± 34 µM | Affinity (KD) to RIG-I C268F + RNA (RIG-I C268F; [1]): n.f. | Kd (RIG-I K270I; absence of RNA, n = 4, read-out: Affinity (KD) to RIG-I K270I): 298 ± 81 µM | Affinity (KD) to RIG-I K270I + RNA (RIG-I K270I; [1]): n.f.
Substance: MANT-ATP
